Measurements reported in patent US12617795B2, “Substituted 6,7-dihydro-5H-pyrrolo[3,4-d]pyrimidines, 5,7-dihydrofuro[3,4-d]pyrimidines, and pyrido[2,3-d]pyrimidines as KCC2 modulators” (Astrazeneca AB, priority 2020, dated 2026).

Target: T1, KCC2 (Homo sapiens, UniProt Q9H2X9)
T1 construct: expressed in transfected cells; host or cells: HEK293 cells electroporated (Maxcyte STX) with the pcDNA3.1 KCC2 plasmid
T1 sequence (Q9H2X9 1-1139): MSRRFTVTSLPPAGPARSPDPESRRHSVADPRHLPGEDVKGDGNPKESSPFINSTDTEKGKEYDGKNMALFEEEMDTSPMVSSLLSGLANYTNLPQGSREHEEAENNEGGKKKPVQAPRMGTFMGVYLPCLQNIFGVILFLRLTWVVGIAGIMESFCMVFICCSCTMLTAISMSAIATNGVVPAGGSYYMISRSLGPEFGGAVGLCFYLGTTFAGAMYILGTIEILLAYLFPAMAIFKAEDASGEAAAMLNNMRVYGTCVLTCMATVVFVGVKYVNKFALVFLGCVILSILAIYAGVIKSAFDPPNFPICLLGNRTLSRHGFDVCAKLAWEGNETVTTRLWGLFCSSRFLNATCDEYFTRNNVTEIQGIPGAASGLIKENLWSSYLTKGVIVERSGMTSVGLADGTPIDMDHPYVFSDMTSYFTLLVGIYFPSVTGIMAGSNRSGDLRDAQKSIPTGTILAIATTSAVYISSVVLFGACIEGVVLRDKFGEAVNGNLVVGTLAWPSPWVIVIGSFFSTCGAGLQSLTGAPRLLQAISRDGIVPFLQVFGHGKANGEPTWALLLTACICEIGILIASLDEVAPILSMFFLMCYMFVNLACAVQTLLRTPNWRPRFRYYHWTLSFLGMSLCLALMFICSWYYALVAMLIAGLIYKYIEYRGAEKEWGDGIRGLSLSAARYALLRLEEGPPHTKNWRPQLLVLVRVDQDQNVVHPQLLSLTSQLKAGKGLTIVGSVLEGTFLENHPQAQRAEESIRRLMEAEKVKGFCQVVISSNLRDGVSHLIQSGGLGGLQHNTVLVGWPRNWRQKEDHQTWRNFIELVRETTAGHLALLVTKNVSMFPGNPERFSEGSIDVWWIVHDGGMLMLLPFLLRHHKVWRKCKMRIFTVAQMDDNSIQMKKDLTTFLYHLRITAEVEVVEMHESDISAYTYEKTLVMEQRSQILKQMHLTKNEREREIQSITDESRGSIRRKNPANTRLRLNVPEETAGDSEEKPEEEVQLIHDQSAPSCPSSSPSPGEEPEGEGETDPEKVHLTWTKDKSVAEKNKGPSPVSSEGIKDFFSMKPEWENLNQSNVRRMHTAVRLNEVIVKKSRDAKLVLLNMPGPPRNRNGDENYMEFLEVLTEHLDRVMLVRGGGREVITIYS
Test: KCC2 thallium transport FLIPR-based assay (Tl+ influx in HEK293 cells expressing KCC2)
Type: cell-based
Conditions: 90 min compound incubation at RT, thallium flux at 120 s used to determine EC50
Description: A thallium transport FLIPR-based assay was used to measure the ability of compounds to activate KCC2. KCC2 activity is assessed by measuring KCC2-dependent Tl^+ influx in a KCC2-expressing cell. The assay protocol was based on those described by Delpire et al (Proc Natl Acad Sci USA. 2009 Mar. 31; 106(13): 5383-5388) and Zhang et al (Journal of Biomolecular Screening 15(2): 2010).
KCC2 was synthesised and codon optimised by GeneArt based on the Uniprot sequence Q9H2X9. The final sequence was subcloned into pcDNA3.1.
HEK293 cells were grown in 10 layer cell stacks at 37° C., 5% CO2, in DMEM, 10% fetal calf serum and 2 mM Glutamine. The cells were detached by removing the media and washing the cell stack with 100 ml of PBS. The PBS was removed and 100 ml of 1× TrypLE was added and the cell stack returned to 37° C. for 5 min. The detached cells were then counted in a Vi Cell counter and spun for 10 min at 1250 rpm in a Sorval Legend centrifuge. The cells were diluted down in Maxcyte electroporation buffer at 4× the final concentration and spun as before. The cell pellet was resuspended at 1×10^8/cells per ml and electroporated in a Maxcyte Cl 2.2 bag on a Maxcyte STX machine via the HEK293 programme with 200 ug/ml of plasmid DNA. The cells were then allowed to recover for 30 min before adding to 500 ml of PBS and then counted again on the Vi Cell. The cells were then frozen down in planer controlled rate freeze in 90% complete media, 10% DMSO.
All reagents were dispensed using a Mulitdrop Combi unless stated otherwise. All FluXOR Invitrogen propriety buffer compositions are mentioned in tables below.
HEK293 KCC2 cells were harvested at a density of 3.33×10^5 cells/mL in complete media (DMEM, Sigma, D6546, 10% fetal calf serum and 1% Glutamax) and 30 μL per well seeded into 384-well PDL coated black-clear plates (Corning, 354663). Leave cells at RT for 20 mins to settle before incubating for 48 h at 37° C., 5% CO2. Following incubation, perform three wash steps in HBSS (Sigma, H6648) using a Biotek cell washer with the final aspiration leaving 20 μL HBSS residual volume in each well. A further 20 μL per well of thallium loading dye is then added (1 h, RT, protect from light). 5 μL of test compounds (100 μM top concentration, 1:2 dilutions, 12 point curve) were added using the FLIPR TETRA and incubated at RT for 90 min in the dark. Following compound incubation, the thallium flux response is read on FLIPR TETRA (ex. 515-575 nm) which is initiated by FLIRR TETRA dispensing 5 μL stimulus buffer into each well. Recordings are measured every 1 second for 120 seconds. Thallium flux at 120 s used to determine EC50.
Compound buffer: Assay buffer with 1 μL of bumetanide per 10 ml.

Row | Compound | EC50 [µM]
1 | CC(C)N1Cc2c(Nc3ccc(C4CCCCC4)cc3)nc(N(C)CCc3ncon3)nc2C1=O [Example 23, 4-[(4-cyclohexylphenyl)amino]-2-{methyl[2-(1,2,4-oxadiazol-3-yl)ethyl]amino}-6-(propan-2-yl)-5,6-dihydro-7H-pyrrolo[3,4-d]pyrimidin-7-one] | 2.92
2 | CC(C)N1Cc2c(Nc3ccc(C4CCCCC4)cc3)nc(-c3cncs3)nc2C1=O [Example 49, 4-[(4-cyclohexylphenyl)amino]-6-(propan-2-yl)-2-(1,3-thiazol-5-yl)-5,6-dihydro-7H-pyrrolo[3,4-d]pyrimidin-7-one] | 6.3
3 | CC(C)N1Cc2c(Nc3ccc(C(C)(C)C)cc3)nc(N3CCOCC3)nc2C1=O [Example 87, 4-[(4-tert-butylphenyl)amino]-2-(morpholin-4-yl)-6-(propan-2-yl)-5,6-dihydro-7H-pyrrolo[3,4-d]pyrimidin-7-one] | 8.18
4 | CC(C)c1ccc(Nc2nc(N3CCOCC3C)nc3c2CN(C(C)C)C3=O)cc1 (centres unmarked) [Example 9, 2-(3-methylmorpholin-4-yl)-6-(propan-2-yl)-4-{[4-(propan-2-yl)phenyl]amino}-5,6-dihydro-7H-pyrrolo[3,4-d]pyrimidin-7-one] | 6.14
5 | CC(C)N1Cc2c(Nc3ccc(OCc4ccccc4)cc3)nc(N3CCO[C@H](C)C3)nc2C1=O [Example 57, 4-[(4-(benzyloxy)phenyl]amino}-2-[(2R)-2-methylmorpholin-4-yl]-6-(propan-2-yl)-5,6-dihydro-7H-pyrrolo[3,4-d]pyrimidin-7-one] | 3.6
6 | CC(C)N1Cc2c(Nc3ccc(-c4ccc(OCCNC(=O)OC(C)(C)C)cc4)cc3)nc(N3CCOC(C4CC4)C3)nc2C1=O (centres unmarked) [Example 66, tert-butyl {2-[(4′-{[2-(2-cyclopropylmorpholin-4-yl)-7-oxo-6-(propan-2-yl)-6,7-dihydro-5H-pyrrolo[3,4-d]pyrimidin-4-yl]amino}[1,1′-biphenyl]-4-yl)oxy]ethyl}carbamate] | 0.917
7 | CC(C)N1Cc2c(Nc3ccc(-c4ccccc4)c(F)c3)nc(N3CCOCC3)nc2C1=O [Example 84, 4-[(2-fluoro[1,1′-biphenyl]-4-yl)amino]-2-(morpholin-4-yl)-6-(propan-2-yl)-5,6-dihydro-7H-pyrrolo[3,4-d]pyrimidin-7-one] | 2.09
8 | Cc1cc(-c2nc3c(c(Nc4ccc(C5CCCCC5)cc4)n2)COC3)ccn1 [Example 95, N-(4-cyclohexylphenyl)-2-(2-methylpyridin-4-yl)-5,7-dihydrofuro[3,4-d]pyrimidin-4-amine] | 3.22
9 | CCN1Cc2c(Nc3ccc(C(C)C)cc3)nc(N3CCO[C@H](C)C3)nc2C1=O [Example 67, 6-ethyl-2-[(2R)-2-methylmorpholin-4-yl]-4-{[4-(propan-2-yl)phenyl]amino}-5,6-dihydro-7H-pyrrolo[3,4-d]pyrimidin-7-one] | 4.07
10 | CC(C)N1Cc2c(Nc3ccc(C4CCCCC4)cc3)nc(N3CCO[C@H](CNC(=O)OC(C)(C)C)C3)nc2C1=O [Example 17, tert-butyl {[(2R)-4-{4-[(4-cyclohexylphenyl)amino]-7-oxo-6-(propan-2-yl)-6,7-dihydro-5H-pyrrolo[3,4-d]pyrimidin-2-yl}morpholin-2-yl]methyl}carbamate] | 1.09
11 | CC(C)N1Cc2c(Nc3ccc(C4CCCCC4)cc3)nc(N(C)Cc3cnccn3)nc2C1=O [Example 33, 4-[(4-cyclohexylphenyl)amino]-2-{methyl[(prazin-2-yl)methyl]amino}-6-(propan-2-yl)-5,6-dihydro-7H-pyrrolo[3,4-d]pyrimidin-7-one] | 5.01
12 | CC(C)N1Cc2c(Nc3ccc(C4CCCCC4)cc3)nc(-n3ccnc3)nc2C1=O [Example 79, 4-((4-cyclohexylphenyl)amino)-2-(1H-imidazol-1-yl)-6-isopropyl-5,6-dihydro-7H-pyrrolo[3,4-d]pyrimidin-7-one] | 6.3
13 | CCN1Cc2c(Nc3ccc(C4CCCCC4)cc3)nc(N3CCO[C@H](C)C3)nc2C1=O [Example 68, 4-[(4-cyclohexylphenyl)amino]-6-ethyl-2-[(2R)-2-methylmorpholin-4-yl]-5,6-dihydro-7H-pyrrolo[3,4-d]pyrimidin-7-one] | 1.94
14 | CC(C)N1Cc2c(Nc3ccc(C(F)(F)C(F)(F)F)cc3)nc(N3CCOCC3)nc2C1=O [Example 83, 2-(morpholin-4-yl)-4-{[4-(pentafluoroethyl)phenyl]amino}-6-(propan-2-yl)-5,6-dihydro-7H-pyrrolo[3,4-d]pyrimidin-7-one] | 3.88
15 | CC(C)N1Cc2c(Nc3ccc(C4CCCCC4)cc3)nc(N(C)CC3CCCO3)nc2C1=O (centres unmarked) [Example 35] | 6.3
16 | CC(C)c1ccc(Nc2nc(N3CCSCC3)nc3c2CN(C(C)C)C3=O)cc1 [Example 5, 6-(propan-2-yl)-4-{[4-(propan-2-yl)phenyl]amino}-2-(thiomorpholin-4-yl)-5,6-dihydro-7H-pyrrolo[3,4-d]pyrimidin-7-one] | 3.77
17 | CCCCCCCOc1ccc(-c2ccc(Nc3nc(N4CCOC(C5CC5)C4)nc4c3CN(C(C)C)C4=O)cc2)cc1 (centres unmarked) [Example 53, 2-(2-cyclopropylmorpholin-4-yl)-4-{[4′-(heptyloxy)[1,1′-biphenyl]-4-yl]amino}-6-(propan-2-yl)-5,6-dihydro-7H-pyrrolo[3,4-d]pyrimidin-7-one] | 0.215
18 | CC(C)N1Cc2c(Nc3ccc(C4CCCCC4)cc3)nc(-c3ccnc(C#N)c3)nc2C1=O [Example 41, 4-(4-((4-cyclohexylphenyl)amino)-6-isopropyl-7-oxo-6,7-dihydro-5H-pyrrolo[3,4-d]pyrimidin-2-yl)picolinonitrile] | 0.518
19 | CC(C)N1Cc2c(Nc3ccc(C4CCCCC4)cc3)nc(C3CCOCC3)nc2C1=O [Example 78, 4-((4-cyclohexylphenyl)amino)-6-isopropyl-2-(tetrahydro-2H-pyran-4-yl)-5,6-dihydro-7H-pyrrolo[3,4-d]pyrimidin-7-one] | 3.08
20 | C#CCCC1(CCOc2ccc(-c3ccc(Nc4nc(N5CCOCC5)nc5c4CN(C(C)C)C5=O)cc3)cc2)N=N1 [Example 70, 4-[(4′-{2-[3-(but-3-yn-1-yl)-3H-diaziren-3-yl]ethoxy}[1,1′-biphenyl]-4-yl)amino]-2-(morpholin-4-yl)-6-(propan-2-yl)-5,6-dihydro-7H-pyrrolo[3,4-d]pyrimidin-7-one] | 1.83
